The values below come from paper PMC3479105, “K-134, a Phosphodiesterase 3 Inhibitor, Prevents Brain Damage by Inhibiting Thrombus Formation in a Rat Cerebral Infarction Model” (PLoS ONE, 2012).

For series [1], the system named is photothrombotic middle cerebral artery (MCA) occlusion. As to the kind of experiment: Photothrombotic MCA occlusion time in rat stroke model. The class given is in vivo. The settings on record: SD rats, n = 12, control 4.1±0.4 min. As for the experimental part:
(§1) Brain infarction was produced by photothrombotic MCA occlusion essentially as reported previously. K-134 and cilostazol were administered to SD rats 2 h and 3 h before irradiation for MCA occlusion, respectively (n = 12), because K-134 reached plasma peak levels at 1–2 h, and cilostazol and its active metabolites (OPC-13015 and OPC-13213) reached at >3 h (Table S1) after oral administration in conscious male SD rats under fed conditions. Rats were anesthetized by intraperitoneal administration of 50 mg/kg of sodium pentobarbital (Kyoritsu Pharmaceutical Co., Ltd., Nara, Japan). Then, a polyethylene catheter for administration of rose bengal was placed in the left femoral vein. Rats were mounted on a brain stereotactic apparatus, and body temperature was maintained at 37°C with a heating pad. The left temporalis muscle was partially cut after incision of the scalp, and craniotomy was performed using a dental drill under an operating microscope. The fiber of a xenon lamp (Model L-4887; Hamamatsu Photonics Co., Ltd., Shizuoka, Japan) was placed on the MCA for irradiation (wavelength: 540 nm, 800000 lux), and the probe of the laser Doppler flow meter (ALF21R; Advance Co., Ltd., Tokyo, Japan) was placed on the MCA distal to the fiber. After 2 min of irradiation, rose bengal (25 mg/kg/mL; Sigma Aldrich Co., MO, USA) was injected for the next 2 min. The MCA was continuously irradiated for 8 min. Blood flow was measured for 18 min from the commencement of irradiation. The MCA occlusion time was determined from blood flow data. When blood flow continued beyond the observation period, the occlusion time was regarded as 16 min. After surgery, the incision site was closed with sutures, and rats were returned to their cages.

Series [2] relates to photothrombotic cerebral infarction model. As to the kind of experiment: Infarct volume 24 h after photothrombotic MCA occlusion. The settings on record: for infarct volume: 24 h after MCA occlusion, control 131.4±18.9 mm^3; for bleeding in the cerebrum observed macroscopically: rats treated with K-134 and cilostazol in photothrombotic stroke model. The class given is in vivo, rat. As for the experimental part: as §1
Twenty-four hours after MCA occlusion, rats were sacrificed by an overdose of pentobarbital and cutting an abdominal vein. The brain was immediately removed, cooled with cold spray (Pip Co., Ltd., Osaka, Japan), and cut into six slices (2 mm thick) using a slicer (RBSC-02; Neuro Science Inc., Tokyo, Japan) and razor (FA-10; Feather Razor, Co., Ltd., Osaka, Japan). The cutting base point (0 mm) was set at the position of bregma, and brains were cut at −2, −4, 0, +2, +4, +6, +8 mm from the base point. The brain slices were stained with 1% (w/v) 2,3,5-triphenyl-2H-tetrazolium chloride (TTC; Tokyo Chemical Industry Co., Ltd., Tokyo, Japan) in saline solution at 37°C for 20 min. The stained slices were photographed with a digital camera (CAMEDIA E-10; Olympus Co., Ltd., Tokyo, Japan). Whole brain areas and infarcted areas were quantified by image analysis (Win ROOF; Mitani Co., Ltd., Tokyo, Japan), and infarct volume were calculated with the trapezoidal rule.

Another series concerns rat platelet aggregation. As to the kind of experiment: Rat platelet aggregation in vitro (PRP, aggregometer). The class given is cell-based. As for the experimental part: Platelet-rich plasma (PRP) was prepared by centrifugation (900 rpm, 15 min, at room temperature) of blood (05PR-22 centrifuge with a 03 rotor; Hitachi, Ltd., Tokyo, Japan), and the platelet count was adjusted to 5×10^5/µL with platelet-poor plasma prepared by centrifugation (3000 rpm, 10 min, at room temperature). PRP was incubated with antiplatelet agents at 37°C for 3 min and stimulated with collagen (final concentration, 15 µg/mL; MC Medical Inc., Tokyo, Japan) or adenosine diphosphate (ADP) (final concentration, 7.5 µM; MC Medical Inc.) (n = 5). Platelet aggregation was quantified by measuring the area under the curve (AUC) during the 5-min period after addition of trigger using a light transmittance aggregometer (PAM-8C; Mebanix Co., Ltd., Tokyo, Japan).

Series [3] has as its system arteriovenous shunt thrombus formation. As to the kind of experiment: Arteriovenous shunt thrombosis model. The note with it: for Occluded/Total: n = 12, control 11/12; for Occlusion (%): control 92; for ED50: Rattus norvegicus, rats, single oral dose 90 min before creation of the arteriovenous shunt, read-out: ED50, incidence of occlusive shunt thrombi. The class given is in vivo, rat. The text has this: (§2) Immediately after a single oral administration of the test compound, SD rats were anesthetized by subcutaneous injection of 1.2 g/kg of urethane (n = 12). Ninety minutes after oral administration of a single dose of K-134 or cilostazol, one end of a polyethylene catheter (size 3, 24 cm; Hibiki, Tokyo, Japan) filled with physiological saline was inserted into the left jugular vein, with the other end of the catheter inserted into the right common carotid artery to create a loop. The end of the catheter was removed from the jugular vein 4 h after creation of the loop. A thrombus was then regarded to have been formed when blood no longer ran from the catheter. […] The serum concentrations of K-134 and cilostazol were determined by high-performance liquid chromatography (HPLC).

Series [4] in a line: Plasma concentration in rat arteriovenous shunt model. The settings on record: SD, n = 6. The series is classed as in vivo.
From the text: as §2

Series [5] in a line: Electron spin resonance (ESR) radical scavenging. The note with it: ESR experiments, data not shown. The source says:
In the photothrombotic cerebral infarction model, photoactivation of rose bengal by illumination with green light results in reactive oxygen intermediates (predominantly singlet oxygen and superoxide). […] Therefore, we concluded that the observed inhibitory effects of K-134 on photothrombosis in this model are relevant to its antiplatelet activity but not radical scavenging activity.

A further series has as its system PDE2. Details: method as in PMID 10644042. The settings on record: read-out: IC50 toward PDE2; cited from earlier work.
The test system of the next series is PDE3A. Details: method as in PMID 10644042. The settings on record: read-out: IC50 toward PDE3A; cited from earlier work.
Another series has as its system PDE3B. Details: method as in PMID 10644042. The settings on record: read-out: IC50 toward PDE3B; cited from earlier work.
In another series the test system is PDE4. Set-up: method as in PMID 10644042. The settings on record: read-out: IC50 toward PDE4; cited from earlier work.
The subject of the next series is PDE5. Details: method as in PMID 10644042. The note with it: read-out: IC50 toward PDE5; cited from earlier work.
Where [6] appears, read: ADP 7.5 µM, n = 5, read-out: IC50, rat platelet aggregation induced by ADP.
Setting [7] is: collagen 15 µg/mL, n = 5, read-out: IC50, rat platelet aggregation induced by collagen.

Read-outs that look alike come from different tables or passages of the source. Marks after values point to notes of the source that are not given here. Bounds are passed on as bounds.

As usually defined, the IC50 is the concentration needed to halve the response being measured. As a reminder, the ED50 is the dose that gives a 50% effect, or the effect in half of the subjects. A word on the Cmax: it is the peak of the concentration-time curve.

On to `O=C(NCCCOc1ccc2[nH]c(=O)ccc2c1)N(C1CC1)[C@@H]1CCCC[C@H]1O` [K-134], for which the MCA occlusion time in series [1] (10 mg/kg oral preadministration, mean ± SEM) is 7.9 ± 1.1 min; in series [1] (30 mg/kg oral preadministration, mean ± SEM), 9.1 ± 1.6 min. The infarct volume in series [2] (10 mg/kg oral, not significant) turned out to be 92.0±14.7 mm^3; in [2] (30 mg/kg oral, significant) it was 62.1±12.9 mm^3. Besides, the “bleeding in the cerebrum observed macroscopically” value in [2] is reported as “No bleeding”. In addition, the IC50 was 3.2 µM with rat platelet aggregation (setting [6]); 2.5 µM in the series on rat platelet aggregation (setting [7]); over 300 µM in the series on PDE2; 0.1 µM in the series on PDE3A; 0.28 µM in the series with PDE3B; over 300 µM in the series with PDE4. In the series on PDE5, the 50% inhibitory concentration (IC50) was 12.1 µM. The “Inhibition (%) of arteriovenous shunt thrombus formation” value in series [3] (3 mg/kg single oral dose) is 18%; in [3] (10 mg/kg single oral dose), 64%; in [3] (30 mg/kg single oral dose) it was 64%. Besides, the Occluded/Total in series [3] (3 mg/kg single oral dose) was 9/12; in series [3] (10 mg/kg single oral dose) it was 4/12*; in series [3] (30 mg/kg single oral dose), 4/12*. Also, the “Occlusion (%)” value came out at 75% in [3] (3 mg/kg single oral dose), 33% in series [3] (10 mg/kg single oral dose) and 33% in series [3] (30 mg/kg single oral dose). In [3], the ED50 stood at 11 mg/kg. In series [4] (10 mg/kg oral), the highest concentration (Cmax) came to 430 ± 80 nM. For the same compound, the “scavenging activities against singlet oxygen and superoxide anion radical” value in series [5] is on record as “did not show scavenging activities”.

In turn, `O=C1CCc2cc(OCCCCc3nnnn3C3CCCCC3)ccc2N1` [cilostazol] gave an MCA occlusion time in [1] (300 mg/kg oral preadministration, not statistically significant) of 6.9 ± 1.3 min. Moreover, the infarct volume in [2] (300 mg/kg oral, not significant) is 95.8±14.8 mm^3. Moreover, the “bleeding in the cerebrum observed macroscopically” value in series [2] is on record as “No bleeding”. In addition, the IC50 was 83 µM in the series with rat platelet aggregation (setting [6]); 42 µM in the series with rat platelet aggregation (setting [7]); 45.2 µM in the series on PDE2; 0.2 µM in the series on PDE3A; 0.38 µM in the series with PDE3B; 88 µM in the series with PDE4. Besides, the half-maximal inhibitory concentration (IC50) in the series with PDE5 is 4.4 µM. Besides, the “Inhibition (%) of arteriovenous shunt thrombus formation” value is 37% in series [3] (10 mg/kg single oral dose), 64% in [3] (30 mg/kg single oral dose) and 73% in series [3] (100 mg/kg single oral dose). In addition, the results for the Occluded/Total in series [3] (10 mg/kg single oral dose), in series [3] (30 mg/kg single oral dose) and in series [3] (100 mg/kg single oral dose) were 7/12, 4/12* and 3/12**, respectively. In addition, the “Occlusion (%)” value in [3] (10 mg/kg single oral dose) is listed as 58%; in series [3] (30 mg/kg single oral dose), 33%; in [3] (100 mg/kg single oral dose), 25%. The ED50 in series [3] came out at 18 mg/kg. Further, in series [4] (30 mg/kg oral), the highest level (Cmax) was 2080 ± 280 nM. Besides, the “scavenging activities against singlet oxygen and superoxide anion radical” value in [5] is given as “did not show scavenging activities”.
